Data published in paper PMC11121358, “Redox Properties of Bacillus subtilis Ferredoxin:NADP^+ Oxidoreductase: Potentiometric Characteristics and Reactions with Pro-Oxidant Xenobiotics” (International Journal of Molecular Sciences, 2024).

Molecular target: T1, Bacillus subtilis ferredoxin:NADP^+ oxidoreductase (BsFNR) (Bacillus subtilis, UniProt O05268)
T1 construct: gene yumC
Experiment: steady-state product inhibition of NADPH:plumbagin reductase reaction
Format: biochemical

T1 sequence (O05268 whole entry): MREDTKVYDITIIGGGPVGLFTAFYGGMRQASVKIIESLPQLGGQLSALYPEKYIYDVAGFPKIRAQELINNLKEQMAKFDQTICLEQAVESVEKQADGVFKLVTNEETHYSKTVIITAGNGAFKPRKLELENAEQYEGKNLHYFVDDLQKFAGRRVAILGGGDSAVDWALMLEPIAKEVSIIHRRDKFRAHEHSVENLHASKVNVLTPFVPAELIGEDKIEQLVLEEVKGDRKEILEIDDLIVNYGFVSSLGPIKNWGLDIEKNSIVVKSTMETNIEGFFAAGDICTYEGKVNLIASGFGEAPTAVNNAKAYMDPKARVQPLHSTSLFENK

Ki: 62.6 ± 10.5 µM
Structure (SMILES): NC(=O)c1ccc[n+]([C@@H]2O[C@H](COP(=O)(O)OP(=O)(O)OC[C@H]3O[C@@H](n4cnc5c(N)ncnc54)[C@H](OP(=O)(O)O)[C@@H]3O)[C@@H](O)[C@H]2O)c1 [NADP^+]
